Results taken from patent US20260315552A1, “COMBINATION OF VITAMINS, 2'-FUCOSYLLACTOSE AND A PROBIOTIC FOR ENHANCING BONE GROWTH AND/OR BONE STRENGTH” (SOCIÉTÉ DES PRODUITS NESTLÉ S.A., priority 2023, published 2026).

Key:
[1] = system: osteocalcin (Ocn) in pre-osteoblastic cell line MC3T3-E1 subclone 4; assay: Osteocalcin mRNA levels (qPCR); format: cell-based; conditions: 21 days of differentiation, without ascorbic acid; MK-7 3 μM, VitA 100 nM, VitD 1 nM; FIG. 1B
Procedure: (§1) (A) ALP activity after 7 days of differentiation (without ascorbic acid). (B) Osteocalcin mRNA levels after 21 days of differentiation (without ascorbic acid). (C) Osteocalcin mRNA levels after 28 days of differentiation (with ascorbic acid). Pos=positive control; Neg=negative control; MK-7=supplemented with 3 μM menaquinone-7; VitD=supplemented with 1 nM 1α,25-Dihydroxyvitamin D3; VitA=supplemented with 100 nM all-trans-retinoic acid.
The pre-osteoblastic cell line MC3T3-E1 subclone 4 (CRL-2593) was purchased from ATCC (Manassas; Virginia, USA). Cells were maintained in growth medium (GM) composed of ascorbic acid-free αMEM (ThermoFisher Scientific), supplemented with 10% fetal calf serum (FCS, ThermoFisher Scientific) and 1% penicillin/streptomycin. All culture media were refreshed every 2-3 days. Cells were passaged with trypsin/EDTA solution at less than 80% confluence. To induce differentiation into osteoblasts, cells were seeded at 5×10^4 cells/cm^2 and grown to confluency in GM for 24 h. Then, the medium was switched to differentiation medium (DM) composed of GM supplemented with 10 mM β-glycerophosphate and treatment solutions of interest. Ascorbic acid 50 μg/ml was also added to the DM depending on the experiment.
MC3T3-E1 subclone 4 cells were differentiated for 21 days (in DM without ascorbic acid except for the positive control) or 28 days (in DM containing ascorbic acid). Cells were then collected for gene expression analysis. RNA was extracted using the RNeasy plus mini kit (Qiagen; Hilden, Germany) with the QIAcube (Qiagen,) according to the manufacturer's instructions. Briefly, cells were lysed in RLT buffer and spun in a QIAshredder column (Qiagen) before being processed by the QIAcube. RNA concentrations were measured using the DropSense96 (TRINEAN, Gentbrugge, Belgium).
cDNAs were synthetized using High-Capacity cDNA Reverse Transcription Kit (AppliedBiosystems; Waltham, Massachusetts, USA) according to the manufacturer's instructions. […] The relative gene expression was evaluated via the 2^-ΔCt method.

[2] = system: pre-osteoblastic cell line MC3T3-E1 subclone 4; assay: Osteoblast alkaline phosphatase (ALP) activity; format: cell-based; conditions: 7 days of differentiation, without ascorbic acid; MK-7 3 μM, VitA 100 nM all-trans-retinoic acid, VitD 1 nM 1α,25-Dihydroxyvitamin D3; FIG. 1A
Procedure: as §1
ALP activity after 7 days of differentiation (without ascorbic acid). […]
The effect of SCFAs was further investigated. Three mixes of 75% acetate, 20% propionate, 5% butyrate were evaluated to mimic normal physiological conditions (20 μM SCFAs), physiological conditions following prebiotic supplementation (50 μM SCFAs), and physiological conditions following synbiotic supplementation (60 μM SCFAs). […]
After 7 days of differentiation, cells were then collected for alkaline phosphatase (ALP) activity measurement as described previously with minor modifications. […] Enzymatic reaction was monitored at 405 nm after 4-Nitrophenyl phosphate disodium salt hexahydrate addition. Michaelis-Menten kinetics were evaluated at 30° C. for 30 min. […] The activity value was normalized by protein content measured via the Pierce BCA Protein Assay Kit (ThermoFisher Scientific) according to the manufacturer's instructions.

Compound	effect on osteocalcin expression [1]	effect on ALP activity (marker of osteoblast differentiation) [2]
CC(C)=CCC/C(C)=C/CC/C(C)=C/CC/C(C)=C/CC/C(C)=C/CC/C(C)=C/CC/C(C)=C/CC1=C(C)C(=O)c2ccccc2C1=O [vitamin K2, menaquinone-7]	significant effect	no significant effect
CC1=C(/C=C/C(C)=C/C=C/C(C)=C/C(=O)O)C(C)(C)CCC1 [vitamin A, all-trans-retinoic acid]	no significant effect	–
C=C1/C(=C\C=C2/CCC[C@]3(C)[C@@H]([C@H](C)CCCC(C)(C)O)CC[C@@H]23)C[C@@H](O)C[C@@H]1O [vitamin D, 1α,25-Dihydroxyvitamin D3]	no significant effect	–
